How the values were obtained:
Type in all cases: cell-based
[1] = test system: Rheumatoid arthritis human fibroblast-like synoviocytes (HFLS-RA); test: Human synoviocytes + Fas antibody cell viability assay (Cell Titer-Glo); settings: with anti-human CD95 (Fas) antibody (300 ng/ml), 72 hrs, read-out: EC50 synoviocyctes + FAS
Procedure: Rheumatoid arthritis human fibroblast-like synoviocytes (HFLS-RA, Cell Applications Inc.) were seeded in 96-well plates at 3000 cells per well in 100 ul of complete synoviocyte growth medium (Cell Applications Inc.) one day prior to treatment. Triplicate wells of cells were treated by the addition of 50 ul of diluted compound (0.01 to 100 nM) in combination with 50 ul of anti-human CD95 (Fas) antibody (300 ng/ml; clone CH-11, Beckman Coulter/Immunotech) and incubated at 37° C. (5% CO2) for 72 hrs. Cell viability was measured by Cell Titer-Glo Luminescent Assay (Promega). Briefly, 100 ul of media was removed from wells and an equal volume of Cell Titer-Glo Reagent was added to the cells. The plates were mixed for 2 minutes on an orbital shaker and after a 10-minute incubation period at room temperature, the emitted luminescence was detected using a Tecan Infinite F200 spectrophotometer.
(§1) The percentage viability of compound-treated cells was expressed as a fraction of the absorbance/luminescence signal obtained from non-treated cells. EC50 values (corresponding to 50% cell survival in the presence of compound as compared to untreated controls) were calculated from MTT survival curves (HCT116 and SKOV3) using BioAssay software (CambridgeSoft) and from Cell Titer-Glo survival curves (synovioycte and Jurkat cells) using GraphPad Prism (Graph Pad Software Inc.). In the below chart, EC50 values are summarized as follows: a=EC50 of less than 10 nM; b=EC50 of 10-100 nM; and c=EC50 of greater than 100 nM.

[2] = test system: Ovarian adenocarcinoma SKOV3 cells; test: SKOV3 cell viability assay (MTT); settings: Homo sapiens, SK-OV-3, 72 hours
Procedure: Ovarian adenocarcinoma SKOV3 cells (ATCC# HTB-77) were cultured as monolayers in McCoy's 5a medium (HyClone) supplemented with 2.2 g/L sodium bicarbonate (Gibco), 10% FBS (HyClone) and 1% penicillin/streptomycin (HyClone). Cells were seeded in tissue culture-treated 96 well plates at 5000 cells/well in 150 ul of media. After 24 hours, triplicate wells of cells were treated with various concentrations of compound (0.01 to 10000 nM) diluted in 50 ul of culture media. Cells were incubated at 37° C. (5% CO2) in the presence of compound for 72 hours. Metabolic viability of remaining cells was assessed by MTT (thiazolyl blue tetrazolium bromide, Sigma) assay. 20 ul of MTT reagent (10 mg/ml) was added per well and plates were incubated for 4 hours at 37° C. (5% CO2). The supernatant was then removed from the plate. The converted MTT product was solubilized with 100 uL of isopropanol and the absorbance was read at 570 nm using a Tecan spectrophotometer.
as §1

[3] = test system: Colorectal carcinoma HCT116 cells; test: HCT116 + ETR1 cell viability assay (MTT); settings: with ETR1 (40 ng/ml), 72 hrs
Procedure: Colorectal carcinoma HCT116 cells (ATCC# CCL-247) were cultured as monolayers in 96 well plates at a density of 2000 cells per well in 100 ul of McCoy's 5a medium (HyClone) supplemented with 2.2 g/L sodium bicarbonate (Gibco), 10% FBS (HyClone) and 1% penecillin/streptomycin (HyClone) for 24 hours. Triplicate wells of cells were treated for 72 hrs at 37° C. (5% CO2) with 50 ul of HGS agonistic Trail receptor antibody, ETR1 (40 ng/ml) in combination with 50 ul of diluted compound (0.01 to 10000 nM). Metabolic viability of remaining cells was assessed by MTT assay.
as §1

SMILES	EC50 [2]	EC50 [3]	EC50 [1]
CN[C@@H](C)C(=O)N[C@H](C(=O)N1C[C@@H](NC(=O)c2ccc(C(=O)N[C@H]3C[C@@H](C(=O)N[C@H](CCCc4ccccc4)c4ccccc4)N(C(=O)[C@@H](NC(=O)[C@H](C)NC)C4CCCCC4)C3)cc2)C[C@H]1C(=O)N[C@H](CCCc1ccccc1)c1ccccc1)C1CCCCC1 [Compound 8]	> 100 nM	10 to 100 nM	–
CN[C@@H](C)C(=O)N[C@H](C(=O)N1C[C@@H](NC(=O)c2ccc3cc(C(=O)N[C@H]4C[C@@H](C(=O)NC(c5ccccc5)c5ccccc5)N(C(=O)[C@@H](NC(=O)[C@H](C)NC)C5CCCCC5)C4)ccc3c2)C[C@H]1C(=O)NC(c1ccccc1)c1ccccc1)C1CCCCC1 [Compound 23]	< 10 nM	< 10 nM	–
CN[C@@H](C)C(=O)N[C@H](C(=O)N1C[C@@H](NC(=O)C2CCC(C(=O)N[C@H]3C[C@@H](C(=O)N[C@@H]4CCCc5ccccc54)N(C(=O)[C@@H](NC(=O)[C@H](C)NC)C4CCCCC4)C3)CC2)C[C@H]1C(=O)N[C@@H]1CCCc2ccccc21)C1CCCCC1 (stereo partly drawn) [Compound 4]	< 10 nM	< 10 nM	–
CN[C@@H](C)C(=O)N[C@H](C(=O)N1C[C@@H](NC(=O)C2CCC(C(=O)N[C@H]3C[C@@H](C(=O)N[C@H](COCc4ccccc4)c4ccccc4)N(C(=O)[C@@H](NC(=O)[C@H](C)NC)C4CCCCC4)C3)CC2)C[C@H]1C(=O)N[C@H](COCc1ccccc1)c1ccccc1)C1CCCCC1 (stereo partly drawn) [Compound 17]	10 to 100 nM	< 10 nM	–
CN[C@@H](C)C(=O)N[C@H](C(=O)N1C[C@@H](NC(=O)c2ccc(C(=O)N[C@H]3C[C@@H](C(=O)N[C@H](C)c4ccc(F)cc4)N(C(=O)[C@@H](NC(=O)[C@H](C)NC)C4CCCCC4)C3)cc2)CC1C(=O)N[C@H](C)c1ccc(F)cc1)C1CCCCC1 (stereo partly drawn) [Compound 26]	< 10 nM	< 10 nM	–
CN[C@@H](C)C(=O)N[C@H](C(=O)N1C[C@@H](NC(=O)C2CCC(C(=O)N[C@H]3C[C@@H](C(=O)N[C@@H]4CCc5ccccc54)N(C(=O)[C@@H](NC(=O)[C@H](C)NC)C4CCCCC4)C3)CC2)C[C@H]1C(=O)N[C@@H]1CCc2ccccc21)C1CCCCC1 (stereo partly drawn) [Compound 3]	< 10 nM	< 10 nM	< 10 nM
CN[C@@H](C)C(=O)N[C@H](C(=O)N1C[C@@H](NC(=O)c2ccc(C(=O)N[C@H]3C[C@@H](C(=O)N[C@H](Cc4ccccc4)c4ccccc4)N(C(=O)[C@@H](NC(=O)[C@H](C)NC)C4CCCCC4)C3)cc2)C[C@H]1C(=O)N[C@H](Cc1ccccc1)c1ccccc1)C1CCCCC1 [Compound 14]	10 to 100 nM	< 10 nM	–
CN[C@@H](C)C(=O)N[C@H](C(=O)N1C[C@@H](NC(=O)c2ccc3cc(C(=O)N[C@H]4C[C@@H](C(=O)N[C@H](COCc5ccccc5)c5ccccc5)N(C(=O)[C@@H](NC(=O)[C@H](C)NC)C5CCCCC5)C4)ccc3c2)C[C@H]1C(=O)N[C@H](COCc1ccccc1)c1ccccc1)C1CCCCC1 [Compound 21]	10 to 100 nM	< 10 nM	–
CN[C@@H](C)C(=O)N[C@H](C(=O)N1C[C@@H](NC(=O)c2ccc(-c3ccc(C(=O)N[C@H]4C[C@@H](C(=O)N[C@H](COCc5ccccc5)c5ccccc5)N(C(=O)[C@@H](NC(=O)[C@H](C)NC)C5CCCCC5)C4)cc3)cc2)C[C@H]1C(=O)N[C@H](COCc1ccccc1)c1ccccc1)C1CCCCC1 [Compound 27]	10 to 100 nM	< 10 nM	–

Further lines, with some results ahead:

EC50 [2]	EC50 [3]	SMILES	EC50 [1]
< 10 nM	< 10 nM	CN[C@@H](C)C(=O)N[C@H](C(=O)N1C[C@@H](NC(=O)C2CCC(C(=O)N[C@H]3C[C@@H](C(=O)NC(c4ccccc4)c4ccccc4)N(C(=O)[C@@H](NC(=O)[C@H](C)NC)C4CCCCC4)C3)CC2)C[C@H]1C(=O)NC(c1ccccc1)c1ccccc1)C1CCCCC1 (stereo partly drawn) [Compound 7]	< 10 nM
–	< 10 nM	CC[C@H](NC)C(=O)N[C@H](C(=O)N1C[C@@H](NC(=O)c2ccc(C(=O)N[C@H]3C[C@@H](C(=O)N[C@@H]4CCCc5ccccc54)N(C(=O)[C@@H](NC(=O)[C@H](CC)NC)C4CCCCC4)C3)cc2)C[C@H]1C(=O)N[C@@H]1CCCc2ccccc21)C1CCCCC1 [Compound 51]	< 10 nM
10 to 100 nM	< 10 nM	CN[C@@H](C)C(=O)N[C@H](C(=O)N1C[C@@H](NC(=O)C2CCC(C(=O)N[C@H]3C[C@@H](C(=O)NC4c5ccccc5-c5ccccc54)N(C(=O)[C@@H](NC(=O)[C@H](C)NC)C4CCCCC4)C3)CC2)C[C@H]1C(=O)NC1c2ccccc2-c2ccccc21)C1CCCCC1 (stereo partly drawn) [Compound 2]	–
< 10 nM	< 10 nM	CN[C@@H](C)C(=O)N[C@H](C(=O)N1C[C@@H](NC(=O)c2ccc(C(=O)N[C@H]3C[C@@H](C(=O)N[C@H](C)c4ccccc4)N(C(=O)[C@@H](NC(=O)[C@H](C)NC)C4CCCCC4)C3)cc2)C[C@H]1C(=O)N[C@H](C)c1ccccc1)C1CCCCC1 [Compound 13]	–
< 10 nM	< 10 nM	CN[C@@H](C)C(=O)N[C@H](C(=O)N1C[C@@H](NC(=O)c2ccc3cc(C(=O)N[C@H]4C[C@@H](C(=O)NC5c6ccccc6-c6ccccc65)N(C(=O)[C@@H](NC(=O)[C@H](C)NC)C5CCCCC5)C4)ccc3c2)C[C@H]1C(=O)NC1c2ccccc2-c2ccccc21)C1CCCCC1 [Compound 20]	–
< 10 nM	< 10 nM	CN[C@@H](C)C(=O)N[C@H](C(=O)N1C[C@@H](NC(=O)c2ccc(C(=O)N[C@H]3C[C@@H](C(=O)N[C@@H]4CCOc5ccccc54)N(C(=O)[C@@H](NC(=O)[C@H](C)NC)C4CCCCC4)C3)cc2)C[C@H]1C(=O)N[C@@H]1CCOc2ccccc21)C1CCCCC1 [Compound 31]	–
< 10 nM	< 10 nM	CN[C@@H](C)C(=O)N[C@H](C(=O)N1C[C@@H](NC(=O)c2ccc(C(=O)N[C@H]3C[C@@H](C(=O)NC(c4ccccc4)c4ccccc4)N(C(=O)[C@@H](NC(=O)[C@H](C)NC)C4CCCCC4)C3)cc2)C[C@H]1C(=O)NC(c1ccccc1)c1ccccc1)C1CCCCC1 [Compound 5]	–
< 10 nM	< 10 nM	CN[C@@H](C)C(=O)N[C@H](C(=O)N1C[C@@H](NC(=O)c2ccc3cc(C(=O)N[C@H]4C[C@@H](C(=O)N[C@@H]5CCCc6ccccc65)N(C(=O)[C@@H](NC(=O)[C@H](C)NC)C5CCCCC5)C4)ccc3c2)C[C@H]1C(=O)N[C@@H]1CCCc2ccccc21)C1CCCCC1 [Compound 19]	–
< 10 nM	< 10 nM	CN[C@@H](C)C(=O)N[C@H](C(=O)N1C[C@@H](NC(=O)c2ccc(-c3ccc(C(=O)N[C@H]4C[C@@H](C(=O)N[C@@H]5CCCc6ccccc65)N(C(=O)[C@@H](NC(=O)[C@H](C)NC)C5CCCCC5)C4)cc3)cc2)C[C@H]1C(=O)N[C@@H]1CCCc2ccccc21)C1CCCCC1 [Compound 9]	–
–	10 to 100 nM	CN[C@@H](C)C(=O)N[C@H](C(=O)N1C[C@@H](NC(=O)c2ccc(C(=O)N[C@H]3C[C@@H](C(=O)N4CC[C@@H](c5ccccc5)C4)N(C(=O)[C@@H](NC(=O)[C@H](C)NC)C4CCCCC4)C3)cc2)C[C@H]1C(=O)N1CC[C@@H](c2ccccc2)C1)C1CCCCC1 [Compound 41]	10 to 100 nM
10 to 100 nM	< 10 nM	CN[C@@H](C)C(=O)N[C@H](C(=O)N1C[C@@H](NC(=O)c2ccc(-c3ccc(C(=O)N[C@H]4C[C@@H](C(=O)NC5c6ccccc6-c6ccccc65)N(C(=O)[C@@H](NC(=O)[C@H](C)NC)C5CCCCC5)C4)cc3)cc2)C[C@H]1C(=O)NC1c2ccccc2-c2ccccc21)C1CCCCC1 [Compound 12]	–

Source: patent publication US20110117081A1, “FUNCTIONALIZED PYRROLIDINES AND USE THEREOF AS IAP INHIBITORS” (priority 2008, published 2011)
